≈ marks a conversion by molar mass, not a printed value. Entries after “also recorded” stand apart in the source; their conditions may differ.
Legend:
[1] = system: sheep testicular hyaluronidase; assay: Hyaluronidase inhibition (hyaluronic acid hydrolysis); assay type: biochemical; conditions: for IC50: pH 5.5, 10 minutes preincubation
Description: Hyaluronidase activity was quantitatively determined by measuring the extent of hyaluronic acid hydrolysis (i.e., the concentration of N-acetylglucosamine-reactive material formed from enzyme activity). Reaction mixtures (0.25 ml) containing the following were prepared: test compound (variable concentration); 0.1 M sodium acetate; 0.15 M sodium chloride; pH adjusted to 5.5; 7.2 units sheep testicular hyaluronidase (Sigma, Type III; H-2251) contained in an acetate buffer; 0.3 mg/ml hyaluronic acid (Sigma, from bovine vitreous humor; H-7630). The enzyme was preincubated with the test agent (1 mg/ml for screening purposes) for 10 minutes before starting the reaction by the addition of hyaluronic acid. The enzyme reaction was determined using the method of Aronson and Davidson (J. Biol. Chem. 241 437-440 (1967)). The reaction mixture was incubated for 30 minutes at room temperature. The reaction product was determined colorimetrically with p-dimethylaminobenzaldehyde (Reissig et al., J. Biol. Chem. 217 959-966 (1965)) by measuring the absorbance at 545 nm.
The reversibility of the hyaluronidase was determined by evaluating enzyme activity at different levels of enzyme (Ackermann and Potter, Proc. Soc. Exp. Biol. Med. 72 1-9 (1949)).

Lactobacillus gasseri = assay: Growth of normal vaginal flora bacterium in culture; assay type: cell-based
Description: This example illustrates the effect of the inhibitory agents of this invention on the normal vaginal flora. Lactobacillus gasseri, which is found in normal vaginal flora, was obtained from the American Type Culture Collection (Rockville, Md.) and cultured under anaerobic conditions at 37° C. in the presence of the desired test agents. Control samples without added test agents were also run. Samples were collected at twenty minute intervals starting at 120 minutes after the start of incubation through 240 minutes. The absorbance at 550 nm was used to estimate the cell density and inhibitory effects. Nonoxynol-9 was also evaluated for comparison purposes.

MT2 cells = assay: Cytotoxicity towards host cells of the viral binding assay; assay type: cell-based; conditions: at the levels of the HIV viral binding assay
Description: Serial dilutions of the test compounds (ranging from 0.1 μg/ml to 1.0 mg/ml) were added to HIV-1 virus such that 50 μl inoculum produced between 70 to 100 syncytia per well in untreated wells containing MT2 cells. The HIV-1 used was strain III, propagated in, and harvested from, a T4-lymphobastoid cell line. Each serial dilution of the test compound with virus was placed in each of three wells containing MT2 cells. The test compound alone was added to a fourth well containing MT2 cells to test for possible cytotoxicity. Triplicate virus control samples (no added test compounds but containing the equivalent amounts of the RPMI medium) were also included.

[2] = system: vaginal/cervical epithelial and other cells; conditions: concentrations as low as; cited from earlier work
rabbit spermatozoa [3] = assay: Motility of rabbit sperm in the contraceptive test; assay type: cell-based; conditions: rabbit sperm in TALP buffer
Description: Rabbit spermatozoa were collected and then diluted in a TALP buffer containing glucose, lactate, and pyruvate. Test compounds were dissolved in the same buffer system. […] Female rabbits were then artificially inseminated with about 0.5 ml of buffer containing about 22.5-30×10^6 sperm. For controls (i.e., sperm and buffer containing no added contraceptive agents), fertilization averaged about 96 percent.

sperm = assay: Sperm acrosomal loss; assay type: cell-based; conditions: 0.5 μg/ml, read-out: maximal acrosomal loss induced
[4] = system: Chlamydia trachomatis (serotype E/UW-5/CS); assay: Chlamydia multiplication assay in HeLa monolayers; assay type: cell-based
Description: This example illustrates the inhibitory effect of several of the inhibitory agents of this invention on Chlamydia trachomatis using a multiplication assay. Immediately before the assay, cryopreserved Chlamydia trachomatis (serotype E/UW-5/CS) samples were quickly thawed at 37° C. and suspended in Hank's balanced salt solution (HBSS) by mild sonication. Serial 1:10 dilutions (10^-1 to 10^-7) of the bacterial suspension were made. HeLa monolayers on coverslips were inoculated with 100 μl of the chlamydia samples in the presence (0.1, 1.0, 10, 100, and 1000 μg/ml) or absence of the test agents. After one hour, the monolayers were washed with HBSS to remove free chlamydia and test agent (if present) and then incubated for 48 hours in HBSS at 37° C.
After the medium was removed, the HeLa monolayer samples were fixed in methanol and washed. The cells were then treated with Kallsted Chlamydia Culture Confirmation fluorescein-conjugated Monoclonal Antibody for 30 minutes at room temperature in a dark, humidified chamber. The cells were then washed with water and covered with coverslip using a mounting medium. Inclusions due to chlamydia infection were visualized with a fluorescent microscope as green fluorescence.

[5] = system: human immunodeficiency virus (HIV-1, RF strain); assay: microbe, parasite or virus in culture; conditions: Human immunodeficiency virus 1, read-out: kill of the virus in culture
Description: For the cell-free virus inactivation assay, HIV is added to the test agent in water and incubated for about 2 minutes. After removal of the test agent by dilution, the treated virus is added to target cells and incubated for 7 days.

physchem = assay type: physicochemical
Neisseria gonorrhea = assay: Bacterial multiplication assay (gonococci); assay type: cell-based
Description: This example illustrates the inhibitory effect for several of the inhibitory agents of this invention on Neisseria gonorrhea using a bacterial multiplication assay. Neisseria gonorrhea isolated from local uncomplicated cases of gonorrhea was verified by Gram stain, oxidase reactivity, and sugar fermentation. The titer of log-phase cultures was adjusted by dilution in GC broth to about 10^8 colony forming units per milliliter. Samples were diluted with broth containing no additives (control) and serial dilutions of the test agents (1000 μg/ml to 0.1 μg/ml). The resulting cultures were incubated at 37° C. for 4 hours. Five serial dilutions were made with GC broth; each dilution was inoculated onto GC agar plates. The inoculated plates were incubated overnight at 37° C. and the resultant gonococcal colonies were counted using bright-field microscopy.

rabbit spermatozoa [6] = assay: Contraceptive effect: rabbit sperm treated before artificial insemination; assay type: in vivo
Description: Rabbit spermatozoa were collected and then diluted in a TALP buffer containing glucose, lactate, and pyruvate. Test compounds were dissolved in the same buffer system.

spermatozoa = assay type: cell-based; conditions: concentrations as high as 20 mg/ml
HSV (type 2, strain 333) = assay: Anti-HSV plaque assay on Vero cells; assay type: cell-based, herpes simplex virus
Description: Viral infectivity was measured by co-culturing herpes simplex virus (HSV) with Vero (African green monkey kidney) cells in phosphate-buffered solutions.
The test agent was serially diluted (0.1 μg/ml to 500 μg/ml) in phosphate-buffered saline (PBS). Each dilution was mixed with HSV (type 2, strain 333). Samples (1 ml) of each mixture were plated in triplicate on washed and drained monolayers of Vero (African green monkey kidney) cells on the bottom of […] flasks. The initial titer in each culture was determined as plaque forming units per milliliter using control cultures with no added test agents. Flasks were incubated at 37° C. for 2 hours and the medium (containing virus and test agent) removed. After washing the cells with PBS, the cells were cultured in supplemented medium 199 (Sigma Chem., cat. no. M9163) for 3 days. After culturing, the cells were stained with Giemsa and the number of viral plaques was determined by phase contrast microscopy. After correcting for dilutions, the viral titer was estimated from the number of plaques. Data were also expressed as the percentage of plaques relative to the control samples (not exposed to test agents). […] The concentration of test agent that was required to reduce the viral titer by 50 percent (IC50) was estimated with curve-fitting software from plots of plaque-forming units per milliliter against the concentration of test agent.

HIV-1 = assay: Viral binding inhibition assay (syncytia formation in MT2 cells); assay type: cell-based, HIV-1 (strain III)
Description: Cultures of MT2 cells (plated in 96-well cell culture plates at about 10,000 cells per well) were grown in a RPMI 1640 medium (Gibco, cat. no. 320-1867AG) which was supplemented with 10 percent fetal bovine serum, 100 I.U./ml penicillin, 100 μg/ml streptomycin, 20 μg/ml gentamicin, and 25 mM HEPES.
The resulting cultures were incubated at 37° C. […] The cultures were then scored microscopically for syncytia formation. […] Data are expressed as percent of a control value (no added test agent) viral titer and plotted as a function of concentration of the test agent. lC50 values (concentration of agent causing 50 percent inhibition) were calculated from the plots of concentration versus viral titer using curve-fitting software.

Compound: Nonoxynol-9 [reference compound]
- IC50 [1]: inactive
- inhibition of Lactobacillus gasseri growth (Lactobacillus gasseri; 0.5 mg/ml): about 60%
- cytotoxicity towards the MT2 cells (MT2 cells): did show cytotoxic effects
- concentration that can injure cells [2]: about 0.0005%

Compound: O=C(O)C(OC(C(=O)O)c1ccccc1)c1ccccc1 (stereo not drawn) [H2 SO4 -modified Mandelic Acid, 2,2'-diphenyl-2,2'-oxy-di-acetic acid]
- sperm motility (rabbit spermatozoa [3]): did not effect sperm motility
- Emax at 0.5 µg/mL (sperm): ~70%
- IC50 [4]: 0.05 µg/mL (≈ 0.000175 mM)
- reversibility of hyaluronidase inhibition ([1]; enzyme activity at different levels of enzyme): irreversible
- IC50 [1]: 8.4 µg/mL (≈ 0.0293 mM)
- killing at 10 µg/mL [5]: ~99%
- water solubility (in words) (physchem): water soluble
- solubility (physchem; water): ~350 mg/mL (≈ 1220 mM)
- inhibition of gonococcal multiplication/growth (Neisseria gonorrhea; 100 μg/ml): completely inhibited; also recorded: complete inhibition
- IC50 (Neisseria gonorrhea; Neisseria, gonococcal multiplication, 4 hours): 15 to 17 µg/mL (≈ 0.0524 to 0.0594 mM)
- fertilization (average) (rabbit spermatozoa [6]; 5 mg/ml added to sperm/buffer, about 15 minutes at 37° C., controls about 96 percent): about 10%
- conception (rabbit spermatozoa [6]; rabbit sperm treated with about 5 mg/ml prior to artificial insemination): nearly complete inhibition of conception
- sperm motility (spermatozoa): did not result in the loss of sperm motility
- HSV inhibition in culture (HSV (type 2, strain 333); 10 μg/ml): completely inhibited
- IC99.9 (HSV (type 2, strain 333); Vero, read-out: Inhibition 3-Log (99.9 percent), concentration): 6.8 µg/mL
- IC99.99 (HSV (type 2, strain 333); Vero, read-out: Inhibition 4-Log (99.99 percent), concentration): 10 µg/mL
- effect on normal vaginal flora (Lactobacillus gasseri): no apparent adverse effects
- effect on the growth of Lactobacillus (Lactobacillus gasseri; 5 mg/ml): did not have any effect; also recorded: not affected
- IC50 (HIV-1; Human immunodeficiency virus 1, HIV-1, MT2 cells): 0.3 µg/mL (≈ 0.00105 mM)
- IC100 (HIV-1; Human immunodeficiency virus 1, read-out: Complete Inhibition (lowest concentration at which complete inhibition occurs), HIV-1, MT2 cells): 5 µg/mL

Source: patent publication US5932619A, “Method for preventing sexually transmitted diseases” (Rush-Presbyterian, St. Luke's Medical Center, priority 1997, dated 1999)
